Calls of active or inactive are those of the source. The calls are words filed in the database; no cut-off is given here.
What was measured:
[1] = molecular target: T1, Thioredoxin (Homo sapiens) (UniProt P10599); assay: Covalent binding affinity to human recombinant TRX-1 assessed as change in protein configuration at 0.1 mM by MALDITOF mass spectrometry
T1 sequence (whole entry): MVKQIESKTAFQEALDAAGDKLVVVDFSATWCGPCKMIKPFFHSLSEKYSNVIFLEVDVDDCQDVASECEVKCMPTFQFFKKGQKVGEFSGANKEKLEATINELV

[2] = molecular target: T2, Thioredoxin, mitochondrial (Homo sapiens) (UniProt Q99757); assay: Covalent binding affinity to human recombinant TRX-2 assessed as change in protein configuration at 0.05 mM by MALDITOF mass spectrometry
T2 sequence (whole entry): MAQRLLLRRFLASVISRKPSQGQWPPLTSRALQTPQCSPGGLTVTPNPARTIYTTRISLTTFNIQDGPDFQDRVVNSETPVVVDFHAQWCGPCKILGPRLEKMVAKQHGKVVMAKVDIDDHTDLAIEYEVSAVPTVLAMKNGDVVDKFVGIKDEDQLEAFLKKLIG

[3] = molecular target: T1, Thioredoxin (Homo sapiens); assay: Covalent binding affinity to TRX-1 in human […] cells at 3 uM after 2 hrs by immunofluorescence assay; format: cell-based
[4] = molecular target: T1, Thioredoxin (Homo sapiens); assay: Covalent binding affinity to TRX-1 in human […] cells assessed as compound-TRX-1 adduct formation at 3 uM after 2 hrs by immunoblotting in presence of GSH; format: cell-based
[5] = molecular target: T2, Thioredoxin, mitochondrial (Homo sapiens); assay: Covalent binding affinity to TRX-2 in human […] cells assessed as compound-TRX-2 adduct formation at 3 uM after 2 hrs by immunoblotting in presence of GSH; format: cell-based
[6] = molecular target: T2, Thioredoxin, mitochondrial (Homo sapiens); assay: Covalent binding affinity to TRX-2 in human […] cells at 3 uM after 2 hrs by immunofluorescence assay; format: cell-based
[7] = molecular target: T1, Thioredoxin (Homo sapiens); assay: Inhibition of TRX1 in human […] cells after 2 hrs by insulin reduction assay; format: cell-based
[8] = molecular target: T1, Thioredoxin (Homo sapiens); assay: Covalent binding affinity to human recombinant TRX-1 assessed as change in protein configuration at 50 uM by LC-ESIQTOF mass spectrometry; settings: TDE = time-dependent effect
[9] = molecular target: T2, Thioredoxin, mitochondrial (Homo sapiens); assay: Covalent binding affinity to human recombinant TRX-2 C assessed as modification in C31/C34 residues by LC-MS/MS analysis
[10] = molecular target: T1, Thioredoxin (Homo sapiens); assay: Covalent binding affinity to human recombinant TRX-1 C assessed as modification in C62/C69/C73 residues by LC-MS/MS analysis
[11] = molecular target: T1, Thioredoxin (Homo sapiens); assay: (§1) Inhibition of human recombinant TRX-1 up to 60 mins by insulin reduction assay
Thioredoxin = molecular target: T3, Thioredoxin (Homo sapiens, UniProt P10599); assay: as §1
T3 sequence (P10599 whole entry): T1 sequence (whole entry)

[12] = molecular target: T2, Thioredoxin, mitochondrial (Homo sapiens); assay: Covalent binding affinity to human recombinant TRX-2 assessed as change in protein configuration at 20 uM by LC-ESIQTOF mass spectrometry; settings: TDE = time-dependent effect
[13] = molecular target: T1, Thioredoxin (Homo sapiens); assay: Inhibition of human recombinant TRX-1 by insulin reduction assay; settings: TDE = time-dependent effect
[14] = molecular target: T4, Thioredoxin, mitochondrial (Homo sapiens, UniProt Q99757); assay: (§2) Inhibition of human recombinant TRX-2 up to 60 mins by insulin reduction assay
T4 sequence (Q99757 whole entry): T2 sequence (whole entry)

[15] = molecular target: T2, Thioredoxin, mitochondrial (Homo sapiens); assay: as §2
[16] = molecular target: T2, Thioredoxin, mitochondrial (Homo sapiens); assay: Inhibition of human recombinant TRX-2 by insulin reduction assay; settings: TDE = time-dependent effect

CC(C)=CCC/C(C)=C/Cc1c(O)c(CC=C(C)C)c2c(c1O)C(=O)C1=C[C@@H]3C[C@H]4C(C)(C)O[C@@](C/C=C(/C)C(=O)O)(C3=O)[C@@]14O2
Activity [1]: Active | Activity [2]: Active

CC(C)=CCC[C@]1(C)C=Cc2c(O)c3c(c(CC=C(C)C)c2O1)O[C@]12C(C[C@@H]4C[C@H]1C(C)(C)O[C@@]2(C/C=C(/C)C(=O)O)C4=O)C3=O (some centres undefined)
Activity [1]: inactive | Activity [2]: inactive

CC(C)=CCC[C@]1(C)C=Cc2c(O)c3c(c(CC=C(C)C)c2O1)O[C@]12C(=C[C@@H]4C[C@H]1C(C)(C)O[C@@]2(C/C=C(/C)C(=O)NCCCCCNC(=O)CCCC[C@@H]1SC[C@@H]2NC(=O)N[C@@H]21)C4=O)C3=O
Activity [3]: Active | Activity [4]: Active | Activity [5]: Active | Activity [6]: Active

CC(C)=CCC[C@]1(C)C=Cc2c(O)c3c(c(CC=C(C)C)c2O1)O[C@]12C(C3=O)C(O)[C@@H]3C[C@H]1C(C)(C)O[C@@]2(C/C=C(/C)C(=O)O)C3=O (some centres undefined)
Activity [1]: inactive | Activity [2]: inactive

CC(C)=CCC[C@]1(C)C=Cc2c(O)c3c(c(CC=C(C)C)c2O1)O[C@]12C(=C[C@@H]4C[C@H]1C(C)(C)O[C@@]2(C/C=C(/C)C(=O)O)C4=O)C3=O [GAMBOGIC ACID]
inhibition [7]: Dose-dependent effect | Activity [1]: Active | Activity [8]: tde | Activity [9]: Active | Activity [2]: Active | Activity [10]: Active | Kinact [11]: 0.063 min⁻¹ | inhibition [11]: Dose-dependent effect | Ki (Thioredoxin): 3110 nM | Activity [12]: tde | inhibition [13]: tde | Ki [14]: 1310 nM | Kinact [15]: 0.037 min⁻¹ | inhibition [15]: Dose-dependent effect | inhibition [16]: tde

CC(C)=CCC[C@]1(C)C=Cc2c(O)c3c(c(CC=C(C)C)c2O1)O[C@]12C(C3=O)[C@@H](S(=O)(=O)O)[C@@H]3C[C@H]1C(C)(C)O[C@@]2(C/C=C(/C)C(=O)O)C3=O (some centres undefined)
Activity [1]: inactive | Activity [2]: inactive

CC(C)=CCC[C@]1(C)C=Cc2c(O)c3c(c(CC=C(C)C)c2O1)O[C@]12C(C3=O)[C@H](S(=O)(=O)O)[C@@H]3C[C@H]1C(C)(C)O[C@@]2(C/C=C(/C)C(=O)O)C3=O (some centres undefined)
Activity [1]: inactive | Activity [2]: inactive

— ChEMBL document CHEMBL2203071, “Gambogic acid deactivates cytosolic and mitochondrial thioredoxins by covalent binding to the functional domain” (J Nat Prod, 2012)
